Test results as given in patent US20260258035A1, “FIVE-MEMBERED AND SIX-MEMBERED NITROGEN-CONTAINING COMPOUND, AND INTERMEDIATE, PREPARATION METHOD AND USE THEREOF” (HANGZHOU SYNRX THERAPEUTICS BIOMEDICAL TECHNOLOGY CO., LTD., priority 2022, published 2026).
≈ marks a conversion by molar mass, not a printed value. Where two headings read alike, the source gives them in different places.

Experiments:
[1] = Solubility assay (FaSSGF / FaSSIF); type: physicochemical; details: kinetic from dmso stock, 2 h at 25° C.
Experimental: 1). Preparation of Solutions:
The FaSSGF solution was prepared as follows: • a) preparation of FaSSGF buffer: dissolve 2.0 g of NaCl as the raw material in about 0.9 L of purified water; • b) adjustment of the pH of the buffer: adjust the pH of the buffer to 1.6 with 1N HCL, and replenish the buffer with purified water to the volume of 1 L; and • c) preparation of FaSSGF solution by addition of FaSSGF powder: add 0.06 g of the FaSSGF powder to about 0.5 L of the buffer, stir until the powder was completely dissolved, and make up for the volume (1 L) with the buffer.
The FaSSIF solution was prepared as follows: • a) preparation of FaSSIF buffer: dissolve 0.42 g of NaOH, 3.44 g of anhydrous NaH2PO4, and 6.19 g of NaCl as raw materials in about 0.9 L of purified water; • b) adjustment the pH of the buffer: adjust the pH of the buffer to 6.5 with 1 N NaOH or 1 N HCL, and replenish the buffer with purified water to the volume of 1 L; and • c) preparation of FaSSIF solution by addition of FaSSIF powder: add 2.24 g of the FaSSIF powder to about 0.5 L of the buffer, stir until the powder was completely dissolved, and make up for the volume (1 L) with the buffer.
2). Preparation of the Solution of Control Compound:
The control compound was weighed and dissolved in DMSO to 10 mM to obtain a stock solution.
3) Preparation of the Solution of Compound to be Tested:
The compound to be tested was formulated into a 10 mM DMSO stock solution.
4) Preparation of Internal Standard Solution:
a) The internal standard was weighed and dissolved in DMSO to 10 mM to obtain an internal standard stock solution (ISTD stock solution).
b) The internal standard stock solution was diluted to 500 nM (Tolbutamide) with an ACN:methano mixture (volume ratio: 1:1) to obtain a quenching solution.
a) The FaSSGF solution at pH 1.6 and the FaSSIF solution at pH 6.5 were pre-warmed; and then, the compound was injected into the buffer.
Once done, the samples were centrifuged at 12,000 rpm for 10 min, and the supernatant was transferred to a new tube. The supernatant was diluted 10-fold and 100-fold with the FaSSGF solution at pH 1.6 or the FaSSIIF solution at pH 6.5. 20 μL of each sample (1×, 10×, 100× and standard curve) was added to 500 μL of the IS solution. The resulting mixture was vortexed vigorously for 1 min and centrifuged at 4,500 rpm for 15 min at 4° C. 150 μL of the supernatant was transferred for LC-MS/MS sample analysis.

[2] = molecular target: PARG (Homo sapiens, UniProt Q86W56); assay: Biochemical assay (PARG, TFMU-ADPr substrate)
Sequence of PARG (Q86W56 whole entry): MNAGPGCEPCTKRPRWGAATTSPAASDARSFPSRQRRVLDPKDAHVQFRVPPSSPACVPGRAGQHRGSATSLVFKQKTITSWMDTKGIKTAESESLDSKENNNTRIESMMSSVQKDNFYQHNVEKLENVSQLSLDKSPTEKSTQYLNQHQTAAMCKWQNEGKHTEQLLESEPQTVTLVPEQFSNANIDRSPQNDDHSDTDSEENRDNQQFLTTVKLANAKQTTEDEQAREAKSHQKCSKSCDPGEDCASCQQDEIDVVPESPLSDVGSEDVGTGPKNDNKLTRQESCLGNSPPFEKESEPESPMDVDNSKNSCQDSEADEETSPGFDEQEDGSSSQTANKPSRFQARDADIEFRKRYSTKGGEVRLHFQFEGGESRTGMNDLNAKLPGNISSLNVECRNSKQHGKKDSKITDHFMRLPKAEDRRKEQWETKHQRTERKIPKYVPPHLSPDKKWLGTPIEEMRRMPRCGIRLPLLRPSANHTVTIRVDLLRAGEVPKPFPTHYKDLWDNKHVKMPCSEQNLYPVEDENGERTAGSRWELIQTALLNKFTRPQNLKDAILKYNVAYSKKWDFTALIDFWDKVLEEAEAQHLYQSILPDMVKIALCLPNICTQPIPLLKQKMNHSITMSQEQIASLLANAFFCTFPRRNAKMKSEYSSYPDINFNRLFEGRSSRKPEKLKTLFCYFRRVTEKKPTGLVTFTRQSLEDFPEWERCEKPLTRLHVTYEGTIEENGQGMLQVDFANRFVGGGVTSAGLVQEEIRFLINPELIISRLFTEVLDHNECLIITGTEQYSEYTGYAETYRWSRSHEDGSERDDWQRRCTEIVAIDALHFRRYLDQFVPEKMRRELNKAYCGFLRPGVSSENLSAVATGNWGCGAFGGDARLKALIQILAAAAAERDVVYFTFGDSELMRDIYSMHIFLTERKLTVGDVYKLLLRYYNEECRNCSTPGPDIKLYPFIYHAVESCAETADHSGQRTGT

[3] = Mouse PK assay; type: in vivo; details: CD1 mice, oral administration, 30 mg/kg, plasma; for bioavailability / half-life / MRT: mouse; for half-life: read-out: Half-life period (converted); for MRT: read-out: Mean residence time
Experimental: The goal of this assay was to study the pharmacokinetics of the test compound on CD1 mice (6-8 weeks old, Zhejiang Vegavit Bio-technology Co., Ltd.) after oral administration. The specific experimental procedures were as follows: • 1) the compound was dissolved in 8% DMSO+72% PEG 400+20% ([…]); and • 2) blood samples were collected, with 0.03 mL collected at 0.25 h, 0.5 h, 1 h, 2 h, 4 h, 8 h, and 24 h, and EDTA-K2 was added. CD1 mice: Approximately 0.03 mL of blood was collected at each time point. The blood was centrifuged for 5 min at 4000 g in a centrifuge at 4° C. to collect plasma. Plasma samples were aliquoted into clean polyethylene microcentrifuge tubes and then stored in a freezer at −75±15° C. before analysis; and • 3) samples were analyzed, and the concentration of the compound in each plasma sample was analyzed with LC-MS/MS. For plasma measurements, pharmacokinetic parameters were calculated using WinNonlin (Phoenix™, version 8.3) or other similar software.

[4] = fassgf or other biorelevant, FaSSGF solution pH 1.6, 100 μM from DMSO stock, read-out: FaSSGF solubility
[5] = FaSSIF solution pH 6.5, 100 μM from DMSO stock, read-out: FaSSIF solubility
[6] = 4 nM PARG, 66.2 uM TFMU-ADPr, 3 min at room temperature

| Compound | solubility at 2 h [1, 4] | solubility at 2 h [1, 5] | IC50 [2, 6] | IC50 ([2]; PARG, TFMU-ADPr substrate) | Area under the curve (0-last; hr*ng/mL) [3] | Peak concentration [3] | Time to peak [3] | bioavailability [3] | half-life [3] | MRT [3] |
| --- | --- | --- | --- | --- | --- | --- | --- | --- | --- | --- |
| CC(C)C(=O)N1CCN(c2cc(S(=O)(=O)NC3(C#N)CC3)cn3c(-c4nnc(C(F)F)s4)ncc23)CC1 [Example 32, N-(1-cyanocyclopropyl)-3-(5-(difluoromethyl)-1,3,4-thiadiazol-2-yl)-8-(4-isobutyrylpiperazin-1-yl)imidazo[1,5-a]pyridine-6-sulfonamide] | 0.9 µM (≈ 0.496 µg/mL) | 3.18 µM (≈ 1.75 µg/mL) | < 100 nM | 0.77 nM | 13174 ng·h/mL | 5317 ng/mL | 0.333 h | 47% | 1.31 h | 1.92 h |
| CC(C)C(=O)N1CCN(c2cc(S(=O)(=O)NC3(C#N)CC3)cn3c(-c4nnc(C(F)(F)F)s4)ncc23)CC1 [Example 167, N-(1-cyanocyclopropyl)-8-(4-isobutyrylpiperazin-1-yl)-3-(5-(trifluoromethyl)-1,3,4-thiadiazol-2-yl)imidazo[1,5-a]pyridine-6-sulfonamide] | 57.5 µM (≈ 32.7 µg/mL) | 96.5 µM (≈ 54.9 µg/mL) | < 100 nM | 16.6 nM | 29273 ng·h/mL | 4087 ng/mL | 1.67 h | 85% | 2.75 h | 4.81 h |
